Measured values: patent publication EP4741386A1 (Jiangsu Yahong Meditech Co., Ltd., priority 2023, dated 2025)

Experiments:
[1] = target: T1, Recombinant human His6-USP1/His6-UAF1 complex protein (Homo sapiens, UniProt O94782); experiment: In vitro inhibitory activity against USP1 (Ubiquitin Rhodamine 110 fluorescence detection, 384-well plate); format: biochemical; conditions: Ub-Rho substrate, 1 hour pre-incubation, read after 30 minutes
T1 construct: His6; purchased R&D E-568-050
Outline: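 Fluorescence assay measuring inhibition of recombinant human His6-USP1/His6-UAF1 complex with Ubiquitin-Rhodamine 110 substrate. Compounds held as 50 mM stocks in 100% DMSO and dispensed by acoustic transfer into modified Tris assay buffer.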

[2] = test system: MDA-MB-436; experiment: CTG experiment for cell viability (CellTiter-Glo, 96-well plate, 7 days); format: cell-based; conditions: Homo sapiens, MDA-MB-436, 168 h, MDA-MB-436 cells, 7 days culture with compound
Outline: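 MDA-MB-436 cells in DMEM were plated in 96-well format, treated with compounds, and cultured 7 days at 37°C. After removing the medium, cells were given PBS plus CellTiter-Glo reagent, incubated 10 min at room temperature, and luminescence was read. Curves were fitted as for the enzyme assay.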

T1 sequence (O94782 whole entry): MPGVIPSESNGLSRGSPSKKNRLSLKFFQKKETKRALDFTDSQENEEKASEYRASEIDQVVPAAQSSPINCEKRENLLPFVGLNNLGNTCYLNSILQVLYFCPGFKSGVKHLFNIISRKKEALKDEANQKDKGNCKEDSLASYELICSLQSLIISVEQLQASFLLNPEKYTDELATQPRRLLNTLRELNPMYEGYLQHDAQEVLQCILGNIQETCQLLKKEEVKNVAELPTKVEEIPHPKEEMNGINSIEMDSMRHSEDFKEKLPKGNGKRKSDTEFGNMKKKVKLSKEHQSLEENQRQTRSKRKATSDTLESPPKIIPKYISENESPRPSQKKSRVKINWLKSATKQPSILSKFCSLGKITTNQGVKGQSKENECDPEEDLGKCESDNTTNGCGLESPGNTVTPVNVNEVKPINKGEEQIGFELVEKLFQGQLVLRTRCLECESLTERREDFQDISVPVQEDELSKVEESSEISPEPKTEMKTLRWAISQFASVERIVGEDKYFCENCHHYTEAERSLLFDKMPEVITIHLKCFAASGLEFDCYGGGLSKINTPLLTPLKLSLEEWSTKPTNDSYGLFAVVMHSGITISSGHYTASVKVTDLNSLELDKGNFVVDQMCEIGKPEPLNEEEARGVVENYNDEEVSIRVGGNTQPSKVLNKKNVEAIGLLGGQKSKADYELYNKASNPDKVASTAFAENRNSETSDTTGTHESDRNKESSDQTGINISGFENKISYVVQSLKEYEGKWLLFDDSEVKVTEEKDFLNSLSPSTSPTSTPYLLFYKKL
T1 sequence (Q8TAF3 whole entry partner): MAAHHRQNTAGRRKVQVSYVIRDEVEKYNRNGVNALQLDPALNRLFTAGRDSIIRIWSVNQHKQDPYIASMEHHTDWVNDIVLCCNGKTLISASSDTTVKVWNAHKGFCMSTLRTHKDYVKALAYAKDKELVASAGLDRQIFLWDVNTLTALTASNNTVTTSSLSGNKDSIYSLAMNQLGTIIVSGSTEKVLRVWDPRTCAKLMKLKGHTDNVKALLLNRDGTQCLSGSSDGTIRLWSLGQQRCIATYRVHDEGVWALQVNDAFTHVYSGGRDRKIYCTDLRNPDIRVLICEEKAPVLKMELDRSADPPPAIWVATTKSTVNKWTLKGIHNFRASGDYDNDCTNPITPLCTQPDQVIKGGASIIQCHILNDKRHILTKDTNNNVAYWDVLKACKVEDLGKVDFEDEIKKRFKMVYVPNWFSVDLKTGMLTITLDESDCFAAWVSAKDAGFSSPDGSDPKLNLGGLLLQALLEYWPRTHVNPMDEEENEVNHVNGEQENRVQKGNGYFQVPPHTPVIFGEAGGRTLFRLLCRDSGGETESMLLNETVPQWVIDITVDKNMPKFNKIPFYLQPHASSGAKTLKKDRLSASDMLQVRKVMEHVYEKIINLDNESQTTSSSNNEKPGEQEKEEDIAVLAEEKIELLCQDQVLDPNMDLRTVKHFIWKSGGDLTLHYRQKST

Compound	IC50 [1] [µM]	IC50 [2] [µM]
CC(C)c1ccccc1-c1nc(NCc2ccc(-c3ccccn3)cc2)c2[nH]ccc2n1 [Example 36, 2-(2-Isopropylphenyl)-N-(4-(pyridin-2-yl)benzyl)-5H-pyrrolo[3,2-d]pyrimidin-4-amine]	0.0224	0.95
COc1cnc(-c2c(OC)ncnc2C2CC2)nc1NC[C@H]1CC[C@H](c2nc(C(F)(F)F)cn2C)CC1 [Example S20]	0.019	0.0214
COc1ncnc(C2CC2)c1-c1ncc(Cl)c(NCc2ccc(-c3nc(C(F)(F)F)cn3C)cc2)n1 [Example 124, 5-Chloro-4'-cyclopropyl-6'-methoxy-N-(4-(1-methyl-4-(trifluoromethyl)-1H-imidazol-2-yl)benzyl)-[2,5'-bipyrimidin]-4-amine]	0.0061	0.0132
COc1ncnc(C2CC2)c1-c1ncc(CO)c(NCc2ccc(-c3nc(C(F)(F)F)cn3C(C)C)cc2)n1 [Example 137, (4'-Cyclopropyl-4-((4-(1-isopropyl-4-(trifluoromethyl)-1H-imidazol-2-yl)benzyl)amino)-6'-methoxy-[2,5'-bipyrimidin]-5-yl)methanol]	0.024	0.216
CC(C)c1ccccc1-c1ncc(O)c(NCc2ccc(-c3nc(C(F)(F)F)cn3C)cc2)n1 [Example 89, 2-(2-Isopropylphenyl)-4-((4-(1-methyl-4-(trifluoromethyl)-1H-imidazol-2-yl)benzyl)amino)pyrimidin-5-ol]	0.0144	0.243
COc1cc(-c2nc(C(F)(F)F)cn2C)ccc1CNc1nc(-c2c(OC)ncnc2C2CC2)ncc1OC [Example 100, 4'-Cyclopropyl-5,6'-dimethoxy-N-(2-methoxy-4-(1-methyl-4-(trifluoromethyl)-1H-imidazol-2-yl)benzyl)-[2,5'-bipyrimidin]-4-amine]	0.0041	0.0278
[2H]C([2H])([2H])N(Cc1ccc(-c2nc(C(F)(F)F)cn2C2CC2)cc1)c1nc(-c2c(OC)ncnc2C2CC2)ncc1F [Example 128, 4'-Cyclopropyl-N-(4-(1-cyclopropyl-4-(trifluoromethyl)-1H-imidazol-2-yl)benzyl)-5-fluoro-6'-methoxy-N-(methyl-d3)-[2,5'-bipyrimidin]-4-amine]	0.0026	0.0057
[2H]C([2H])([2H])N(Cc1ccc(-c2nc(C(F)(F)F)cn2C(C)C)cc1)c1nc(-c2c(OC)ncnc2C2CC2)ncc1F [Example 129, 4'-Cyclopropyl-5-fluoro-N-(4-(1-isopropyl-4-(trifluoromethyl)-1H-imidazol-2-yl)benzyl)-6'-methoxy-N-(methyl-d3)-[2,5'-bipyrimidin]-4-amine]	0.009	0.0126
COc1cnc(-c2c(OC)ncnc2C2CC2)nc1NCc1ccc(-c2nc(C(F)(F)F)cn2C(C)C)cc1 [Example 106, 4'-Cyclopropyl-N-(4-(1-isopropyl-4-(trifluoromethyl)-1H-imidazol-2-yl)benzyl)-5,6'-dimethoxy-[2,5'-bipyrimidin]-4-amine]	0.0029	0.0047
COc1cc(-c2nc(C(F)(F)F)cn2C)ccc1CNc1nc(-c2ccccc2C2CC2)nc2ccoc12 [Example 175, 2-(2-Cyclopropylphenyl)-N-(2-methoxy-4-(1-methyl-4-(trifluoromethyl)-1H-imidazol-2-yl)benzyl)furo[3,2-d]pyrimidin-4-amine]	0.0036	0.0871
CC(C)c1ccccc1-c1ncc(C(F)(F)F)c(NCc2ccc(-c3nc(C(F)(F)F)cn3C)cc2)n1 [Example 17, 2-(2-Isopropylphenyl)-N-(4-(1-methyl-4-(trifluoromethyl)-1H-imidazol-2-yl)benzyl)-5-(trifluoromethyl)pyrimidin-4-amine]	0.0039	0.103
COc1ncnc(C2CC2)c1-c1ncc(F)c(N(C)Cc2ccc(-c3nc(C(F)(F)F)cn3C(C)C)cc2)n1 [Example 127, 4'-Cyclopropyl-5-fluoro-N-(4-(1-isopropyl-4-(trifluoromethyl)-1H-imidazol-2-yl)benzyl)-6'-methoxy-N-methyl-[2,5'-bipyrimidin]-4-amine]	0.0042	0.0122
COc1ncnc(C2CC2)c1-c1ncc(OC(F)F)c(NCC2CCN(c3nc(C(F)(F)F)cn3C)CC2)n1 [Example 133, 4'-Cyclopropyl-5-(difluoromethoxy)-6'-methoxy-N-((1-(1-methyl-4-(trifluoromethyl)-1H-imidazol-2-yl)piperidin-4-yl)methyl)-[2,5'-bipyrimidin]-4-amine]	0.015	0.135
COc1cnc(-c2c(OC)ncnc2C2CC2)nc1NCC12CCC(c3nc(C(F)(F)F)cn3C)(CC1)CC2 [Example 104, 4'-Cyclopropyl-5,6'-dimethoxy-N-((4-(1-methyl-4-(trifluoromethyl)-1H-imidazol-2-yl)bicyclo[2.2.2]octan-1-yl)methyl)-[2,5'-bipyrimidin]-4-amine]	0.0088	0.0137
COc1cnc(-c2c(C)cnn2C2CC2)nc1NCc1ccc(-c2nc(C(F)(F)F)cn2C)cc1 [Example 199, 2-(1-Cyclopropyl-4-methyl-1H-pyrazol-5-yl)-5-methoxy-N-(4-(1-methyl-4-(trifluoromethyl)-1H-imidazol-2-yl)benzyl)pyrimidin-4-amine]	0.0056	0.0287
COc1ncnc(C2CC2)c1-c1nc(NCc2ccc(-c3nc(C(F)(F)F)cn3C)s2)c2occc2n1 [Example 113, 2-(4-Cyclopropyl-6-methoxypyrimidin-5-yl)-N-((5-(1-methyl-4-(trifluoromethyl)-1H-imidazol-2-yl)thiophen-2-yl)methyl)furo[3,2-d]pyrimidin-4-amine]	0.023	0.0872
COc1cc(-n2nc(C(F)(F)F)cc2C)ccc1CNc1nc(-c2c(OC)ncnc2C2CC2)ncc1OC [Example 102, 4'-Cyclopropyl-5,6'-dimethoxy-N-(2-methoxy-4-(5-methyl-3-(trifluoromethyl)-1H-pyrazol-1-yl)benzyl)-[2,5'-bipyrimidin]-4-amine]	0.0044	0.0158
COc1cnc(-c2c(C)cnn2C2CC2)nc1N(C)Cc1ccc(-c2nc(C(F)(F)F)cn2C)cc1 [Example 198, 2-(1-Cyclopropyl-4-methyl-1H-pyrazol-5-yl)-5-methoxy-N-methyl-N-(4-(1-methyl-4-(trifluoromethyl)-1H-imidazol-2-yl)benzyl)pyrimidin-4-amine]	0.0032	0.0056
COc1cnc(-c2c(Cl)cnn2C(C)C)nc1NCc1ccc(-c2ccccn2)cc1 [Example 162, 2-(4-Chloro-1-isopropyl-1H-pyrazol-5-yl)-5-methoxy-N-(4-(pyridin-2-yl)benzyl)pyrimidin-4-amine]	0.0039	0.0775
C#CCN(Cc1ccc(-c2nc(C(F)(F)F)cn2C)cc1)c1nc(-c2c(OC)ncnc2C2CC2)ncc1OC [Example 139, 4'-Cyclopropyl-5,6'-dimethoxy-N-(4-(1-methyl-4-(trifluoromethyl)-1H-imidazol-2-yl)benzyl)-N-(prop-2-yn-1-yl)-[2,5'-bipyrimidin]-4-amine]	0.0052	0.005
Cc1cc(C(F)(F)F)nn1-c1ccc(CNc2nc(-c3c(Cl)cnn3C(C)C)nc3ccoc23)cc1 [Example 168, 2-(4-Chloro-1-isopropyl-1H-pyrazol-5-yl)-N-(4-(5-methyl-3-(trifluoromethyl)-1H-pyrazol-1-yl)benzyl)furo[3,2-d]pyrimidin-4-amine]	0.0012	0.0051
COc1cnc(-c2ccccc2C(C)C)nc1N(C)CC1CCN(c2nc(C(F)(F)F)cn2C)CC1 [Example 62, 2-(2-Isopropylphenyl)-5-methoxy-N-methyl-N-((1-(1-methyl-4-(trifluoromethyl)-1H-imidazol-2-yl)piperidin-4-yl)methyl)pyrimidin-4-amine]	0.0021	0.0022
COc1cnc(-c2ccccc2C(C)C)nc1NCc1ccc(-c2ccc(C)cn2)cc1 [Example 66, 2-(2-Isopropylphenyl)-5-methoxy-N-(4-(5-methylpyridin-2-yl)benzyl)pyrimidin-4-amine]	0.0056	0.0146
COc1ncnc(C2CC2)c1-c1ncc(C#N)c(NCc2ccc(-c3nc(C(F)(F)F)cn3C)cc2)n1 [Example 131, 4'-Cyclopropyl-6'-methoxy-4-((4-(1-methyl-4-(trifluoromethyl)-1H-imidazol-2-yl)benzyl)amino)-[2,5'-bipyrimidine]-5-carbonitrile]	0.0074	0.0455
COc1cnc(-c2c(OC)ncnc2C2CC2)nc1N(C)C[C@H]1CC[C@H](c2nc(C(F)(F)F)cn2C)CC1 [Example S21]	0.006	0.0047
COc1cnc(-c2c(OC)ncnc2C2CC2)nc1NCc1ccc(OCc2ccccn2)cc1 [Example 98, 4'-Cyclopropyl-5,6'-dimethoxy-N-(4-(pyridin-2-ylmethoxy)benzyl)-[2,5'-bipyrimidin]-4-amine]	0.144	0.694
CC(C)c1ccccc1-c1ncc(OC(F)F)c(NCc2ccc(-c3nc(C(F)(F)F)cn3C)cc2)n1 [Example 86, 5-(Difluoromethoxy)-2-(2-isopropylphenyl)-N-(4-(1-methyl-4-(trifluoromethyl)-1H-imidazol-2-yl)benzyl)pyrimidin-4-amine]	0.0011	0.0294
COc1cnc(-c2ccccc2C(C)C)nc1NCc1ccc(-c2nccn3ccnc23)cc1 [Example 11, N-(4-(Imidazo[1,2-a]pyrazin-8-yl)benzyl)-2-(2-isopropylphenyl)-5-methoxypyrimidin-4-amine]	0.022	0.751
